Experimental data from patent US20250110108A1 (priority 2022, published 2025).

Settings: in vivo

In the case of Arsenious acid [As^III], the “concentration range in urine” value is reported as 2.13 to 101 ng/mL, the “median concentration in urine” value is reported as 13.8 µg/L and the “share of ΣAs in urine” value is reported as 3.8-36.9%.

For Arsenic acid [As^V], the “concentration range in urine” value was 0 to 12.1 ng/mL and the “median concentration in urine” value was 1.12 µg/L.
